From US9345766B2, “Combination therapies comprising anti-ERBB3 agents” (Merrimack Pharmaceuticals, Inc., priority 2012, dated 2016)

Tested on: phospho-ErbB3 (pErbB3)
Assay type: cell-based
Conditions: incubation 15 minutes to 24 hours
Description: Cell lysates are probed for phospho-ErbB3 (pErbB3), and phospho-AKT (pAKT) by ELISA as described previously (Schoeberl et al, 2009) Inhibitor IC50 values are calculated by fitting dose-response data to a 4-parameter sigmoidal curve (GraphPad Prism®, GraphPad Software, Inc., La Jolla, Calif.).
Model-generated dose-response curves overlay the experimental data (FIG. 7a). […] Untreated and heregulin-stimulated cells were probed for pErbB3 and pAKT and the IC50 was calculated (FIG. 7b).
Amounts of pAKT and pErbB3 were measured by ELISA essentially as described.

Question: For “MM-111: bispecific anti-ErbB2/anti-ErbB3 antibody, scFv HSA conjugate, amino acid sequence SEQ ID NO:1”, which “ability to inhibit heregulin-induced ErbB3 activation relative to lapatinib” value is on record?
Answer: superior to lapatinib by greater than an order of magnitude
